{"source": "patent US5593698A", "about": "“Suppression of proliferative response and induction of tolerance with polymorphic class II MHC allopeptides” (Autoimmune, Inc., priority 1993, dated 1997)"}
{"system": "LEW rats", "assay": "Delayed Type Hypersensitivity (DTH) response after immunization with allopeptides", "format": "in vivo, rat", "conditions": "LEW rats immunized in foot pad with 12.5 μg of one fragment and CFA; FIG. 5", "description": "4. Delayed Type Hypersensitivity (DTH) Response: LEW rats, used as responders, were immunized subcutaneously in the foot pad with 100 μg of the mixture of four RT1.B^u (50 μg) and four RT1.D^u (50 μg) peptides in complete Freund's adjuvant (12.5 μg of each peptide). These animals were challenged subcutaneously 2 weeks later in one ear with 10 μg of the peptide mixture and in the other ear with freshly prepared and irradiated (3000 Rads) splenocytes (10×10^6) from WF (RT1^u), syngeneic LEW (RT1^1), or third party BN (RT1^n). The DTH responses were measured with micrometer caliper (Mitutoyo, Japan) by a blinded observer as the delta ear thickness before and 2 days after the challenge (inches ×10^-2). Experiments were performed using 5 animals in each study group. P values were calculated using the student t-test.\nThese experiments investigate whether, in addition to polymorphism, the native location of the allopeptide, β-pleat vs. α-helix, may be an important determinant of immunogenicity and tolerogenicity in vivo. The immunogenicity and tolerogenicity of the individual allopeptide fragments were investigated. LEW rats, used as responders, were immunized subcutaneously in the foot pad with 12.5 μg of one of the four RT1.D (1-25, 20-44, 39-64, and 60-84) and four RT1.B (1-25, 20-44, 39-64, and 68-92) allopeptide fragments and CFA. DTH responses were then determined for each of the peptide fragments. […] In FIG. 5, \"RT1D mix\" and \"RT1B mix\" refers to animals immunized with a mixture of all four allopeptides. In FIG. 5 solid bars represent immunization with cells, hatched bars represent immunization with peptides. Bars represent the change in ear thickness in […] (mean±SEM)."}
{"substance": "RT1.B1: RT1.B allopeptide fragment 1-25, β-pleat (QRLRRDFLVQFKPYCYFTNGTQRIR)", "Immunogenicity of individual allopeptide fragments by DTH response": "immunogenic"}
{"substance": "RT1.B2: RT1.B allopeptide fragment 20-44, β-pleat (GTQRIRNVIRYIYNREEYLRYDSDV)", "Immunogenicity of individual allopeptide fragments by DTH response": "immunogenic"}
{"substance": "RT1.D1: RT1.D allopeptide fragment 1-25, β-pleat (RDPTPRFLGYLKPECHFYNGTNRVR)", "Immunogenicity of individual allopeptide fragments by DTH response": "immunogenic"}
{"substance": "RT1.D2: RT1.D allopeptide fragment 20-44, β-pleat (GTNRVRLLARLIYNREEYARFDSDV)", "Immunogenicity of individual allopeptide fragments by DTH response": "immunogenic"}
